pIC50: −log10 of the molar value.
Each molecule was assayed against T1, Recombinant human EP300 containing the bromodomain (EP300-BD (1040-1161)) (Homo sapiens, UniProt Q09472) (assay: EP300 Alphascreen binding assay).
T1 construct: Recombinant human EP300 bromodomain (EP300-BD (1040-1161)); made in house; host or cells: E. coli BL21-CodonPlus (DE3), modified pET vector
T1 sequence (Q09472 1040-1161): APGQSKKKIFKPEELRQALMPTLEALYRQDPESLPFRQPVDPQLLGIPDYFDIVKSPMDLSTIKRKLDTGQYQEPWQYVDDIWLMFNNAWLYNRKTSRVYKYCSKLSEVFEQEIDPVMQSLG
Method in brief: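 Displacement of a biotinylated acetyl-K56 histone H3 peptide from the N-His bromodomain construct (1040-1161) measured by AlphaScreen proximity, beads at 7.5 μg/ml final, read 60 min after addition. Protein, peptide and compound first incubated 1 h at room temperature, pH 7.5 HEPES buffer; IC50 by four-parameter logistic fit.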

SMILES | pIC50
Cc1noc(C)c1-c1cnc2c(c1)c(-c1ccc(C(N)=O)cc1)cn2C(c1ccccn1)C1CCCC1 (centres unmarked) [P-0020, 4-(1-(cyclopentyl(pyridin-2-yl)methyl)-5-(3,5-dimethylisoxazol-4-yl)-1H-pyrrolo[2,3-b]pyridin-3-yl)benzamide] | 5.10 to 6.00
CNC(=O)c1ccc(-c2cn(C(c3ccccn3)C3CCCC3)c3ncc(-c4c(C)noc4C)cc23)cc1 (centres unmarked) [P-0021, 4-(1-(cyclopentyl(pyridin-2-yl)methyl)-5-(3,5-dimethylisoxazol-4-yl)-1H-pyrrolo[2,3-b]pyridin-3-yl)-N-methylbenzamide] | 5.10 to 6.00
Cc1noc(C)c1-c1cnc2c(c1)c(-c1ccc(C#N)cc1)cn2C(c1ccccn1)C1CCCC1 (centres unmarked) [P-0022, 4-(1-(cyclopentyl(pyridin-2-yl)methyl)-5-(3,5-dimethylisoxazol-4-yl)-1H-pyrrolo[2,3-b]pyridin-3-yl)benzonitrile] | 3.00 to 5.10
Cc1noc(C)c1-c1cnc2c(c1)c(-c1ccc3c(c1)CNC3=O)cn2C(c1ccccn1)C1CCCC1 (centres unmarked) [P-0023, 5-(1-(cyclopentyl(pyridin-2-yl)methyl)-5-(3,5-dimethylisoxazol-4-yl)-1H-pyrrolo[2,3-b]pyridin-3-yl)isoindolin-1-one] | 5.10 to 6.00
Cc1noc(C)c1-c1cnc2c(c1)c(-c1ccc(-c3nn[nH]n3)cc1)cn2C(c1ccccn1)C1CCCC1 (centres unmarked) [P-0024, 4-(3-(4-(2H-tetrazol-5-yl)phenyl)-1-(cyclopentyl(pyridin-2-yl)methyl)-1H-pyrrolo[2,3-b]pyridin-5-yl)-3,5-dimethylisoxazole] | 5.10 to 6.00
Cc1noc(C)c1-c1cnc2c(c1)c(-c1ccc(C(=O)O)c(F)c1)cn2C(c1ccccn1)C1CCCC1 (centres unmarked) [P-0025, 4-(1-(cyclopentyl(pyridin-2-yl)methyl)-5-(3,5-dimethylisoxazol-4-yl)-1H-pyrrolo[2,3-b]pyridin-3-yl)-2-fluorobenzoic acid] | 6.00 to 10.00
Cc1noc(C)c1-c1cnc2c(c1)c(-c1ccc(C(=O)O)nc1)cn2C(c1ccccn1)C1CCCC1 (centres unmarked) [P-0026, 5-(1-(cyclopentyl(pyridin-2-yl)methyl)-5-(3,5-dimethylisoxazol-4-yl)-1H-pyrrolo[2,3-b]pyridin-3-yl)picolinic acid] | 6.00 to 10.00
Cc1cc(-c2c(C(F)(F)F)n([C@@H](C)c3ccccn3)c3cc(-c4c(C)noc4C)cnc23)ccc1C(=O)O [P-0243, (S)-4-(6-(3,5-dimethylisoxazol-4-yl)-1-(1-(pyridin-2-yl)ethyl)-2-(trifluoromethyl)-1H-pyrrolo[3,2-b]pyridin-3-yl)-2-methylbenzoic acid] | 5.10 to 6.00
COc1cc(-c2c(C(F)(F)F)n([C@@H](C)c3ccccn3)c3cc(-c4c(C)noc4C)cnc23)ccc1C(=O)O [P-0244, (S)-4-(6-(3,5-dimethylisoxazol-4-yl)-1-(1-(pyridin-2-yl)ethyl)-2-(trifluoromethyl)-1H-pyrrolo[3,2-b]pyridin-3-yl)-2-methoxybenzoic acid] | 5.10 to 6.00
Cc1noc(C)c1-c1cnc2c(-c3cccc(C(=O)O)c3F)c(C(F)(F)F)n([C@@H](C)c3ccccn3)c2c1 [P-0245, (S)-3-(6-(3,5-dimethylisoxazol-4-yl)-1-(1-(pyridin-2-yl)ethyl)-2-(trifluoromethyl)-1H-pyrrolo[3,2-b]pyridin-3-yl)-2-fluorobenzoic acid] | 6.00 to 10.00
Cc1noc(C)c1-c1cnc2c(-c3cccc(C(=O)O)c3C)c(C(F)(F)F)n([C@@H](C)c3ccccn3)c2c1 [P-0246, (S)-3-(6-(3,5-dimethylisoxazol-4-yl)-1-(1-(pyridin-2-yl)ethyl)-2-(trifluoromethyl)-1H-pyrrolo[3,2-b]pyridin-3-yl)-2-methylbenzoic acid] | 5.10 to 6.00
Cc1noc(C)c1-c1cnc2c(-c3cccc(C(=O)O)c3Cl)c(C(F)(F)F)n([C@@H](C)c3ccccn3)c2c1 [P-0247, (S)-2-chloro-3-(6-(3,5-dimethylisoxazol-4-yl)-1-(1-(pyridin-2-yl)ethyl)-2-(trifluoromethyl)-1H-pyrrolo[3,2-b]pyridin-3-yl)benzoic acid] | 6.00 to 10.00
CCOC(=O)c1cc(-c2cn(-c3ccc(F)cc3F)c3ncc(-c4c(C)noc4C)cc23)c(OCC)cc1O [P-0248, ethyl 5-(1-(2,4-difluorophenyl)-5-(3,5-dimethylisoxazol-4-yl)-1H-pyrrolo[2,3-b]pyridin-3-yl)-4-ethoxy-2-hydroxybenzoate] | 3.00 to 5.10
CCOc1cc(O)c(C(=O)O)cc1-c1cn(-c2ccc(F)cc2F)c2ncc(-c3c(C)noc3C)cc12 [P-0249, 5-(1-(2,4-difluorophenyl)-5-(3,5-dimethylisoxazol-4-yl)-1H-pyrrolo[2,3-b]pyridin-3-yl)-4-ethoxy-2-hydroxybenzoic acid] | 6.00 to 10.00
CCOc1cc(OC)c(C(=O)O)cc1-c1cn(-c2ccc(F)cc2F)c2ncc(-c3c(C)noc3C)cc12 [P-0250, 5-(1-(2,4-difluorophenyl)-5-(3,5-dimethylisoxazol-4-yl)-1H-pyrrolo[2,3-b]pyridin-3-yl)-4-ethoxy-2-methoxybenzoic acid] | 6.00 to 10.00
Cc1noc(C)c1-c1cnc2c(c1)c(-c1ccc(C(=O)O)cc1OC(F)(F)F)cn2-c1cnccc1F [P-0251, 4-(5-(3,5-dimethylisoxazol-4-yl)-1-(4-fluoropyridin-3-yl)-1H-pyrrolo[2,3-b]pyridin-3-yl)-3-(trifluoromethoxy)benzoic acid] | 6.00 to 10.00
Cc1noc(C)c1-c1cnc2c(c1)c(-c1ccc(C(=O)O)cc1OC(F)(F)F)cn2-c1cnccc1O [P-0252, 4-(5-(3,5-dimethylisoxazol-4-yl)-1-(4-hydroxypyridin-3-yl)-1H-pyrrolo[2,3-b]pyridin-3-yl)-3-(trifluoromethoxy)benzoic acid] | 6.00 to 10.00
Cc1noc(C)c1-c1cnc2c(c1)c(-c1ccc(C(=O)O)cc1OC(F)(F)F)cn2-c1ccncc1Cl [P-0253, 4-(1-(3-chloropyridin-4-yl)-5-(3,5-dimethylisoxazol-4-yl)-1H-pyrrolo[2,3-b]pyridin-3-yl)-3-(trifluoromethoxy)benzoic acid] | 6.00 to 10.00
Cc1noc(C)c1-c1cnc2c(c1)c(-c1ccc(C(=O)O)cc1OC(F)(F)F)cn2-c1c(F)cccc1C#N [P-0254, 4-(1-(2-cyano-6-fluorophenyl)-5-(3,5-dimethylisoxazol-4-yl)-1H-pyrrolo[2,3-b]pyridin-3-yl)-3-(trifluoromethoxy)benzoic acid] | 6.00 to 10.00
COc1cc(C(=O)O)cc(C)c1-c1cn(-c2ccccc2)c2ncc(-c3c(C)noc3C)cc12 [P-0255, 4-(5-(3,5-dimethylisoxazol-4-yl)-1-phenyl-1H-pyrrolo[2,3-b]pyridin-3-yl)-3-methoxy-5-methylbenzoic acid] | 6.00 to 10.00
Cc1noc(C)c1-c1cnc2c(-c3ccc(C(=O)O)cc3C#N)c(C(F)(F)F)n([C@@H](C)c3ccccn3)c2c1 [P-0256, (S)-3-cyano-4-(6-(3,5-dimethylisoxazol-4-yl)-1-(1-(pyridin-2-yl)ethyl)-2-(trifluoromethyl)-1H-pyrrolo[3,2-b]pyridin-3-yl)benzoic acid] | 6.00 to 10.00
Cc1noc(C)c1-c1cnc2c(-c3cc(C(=O)O)ccc3Cl)c(C(F)(F)F)n([C@@H](C)c3ccccn3)c2c1 [P-0257, (S)-4-chloro-3-(6-(3,5-dimethylisoxazol-4-yl)-1-(1-(pyridin-2-yl)ethyl)-2-(trifluoromethyl)-1H-pyrrolo[3,2-b]pyridin-3-yl)benzoic acid] | 6.00 to 10.00
CCOc1cc(C(=O)O)cc(OCC)c1-n1cc(-c2cnn(CS(C)(=O)=O)c2)c2ncc(-c3c(C)noc3C)cc21 [P-0258, 4-(6-(3,5-dimethylisoxazol-4-yl)-3-(1-((methylsulfonyl)methyl)-1H-pyrazol-4-yl)-1H-pyrrolo[3,2-b]pyridin-1-yl)-3,5-diethoxybenzoic acid] | 6.00 to 10.00
CCOc1cc(C(=O)O)cc(OCC)c1-n1cc(-c2cn(C(C)C)nc2C)c2ncc(-c3c(C)noc3C)cc21 [P-0259, 4-(6-(3,5-dimethylisoxazol-4-yl)-3-(1-isopropyl-3-methyl-1H-pyrazol-4-yl)-1H-pyrrolo[3,2-b]pyridin-1-yl)-3,5-diethoxybenzoic acid] | 6.00 to 10.00
CCOc1cc(C(=O)O)cc(OCC)c1-n1cc(-c2cnn(CC(C)(C)O)c2)c2ncc(-c3c(C)noc3C)cc21 [P-0260, 4-(6-(3,5-dimethylisoxazol-4-yl)-3-(1-(2-hydroxy-2-methylpropyl)-1H-pyrazol-4-yl)-1H-pyrrolo[3,2-b]pyridin-1-yl)-3,5-diethoxybenzoic acid] | 6.00 to 10.00
CCOc1cc(C(=O)O)cc(OCC)c1-n1cc(-c2cnn(C(F)F)c2)c2ncc(-c3c(C)noc3C)cc21 [P-0261, 4-(3-(1-(difluoromethyl)-1H-pyrazol-4-yl)-6-(3,5-dimethylisoxazol-4-yl)-1H-pyrrolo[3,2-b]pyridin-1-yl)-3,5-diethoxybenzoic acid] | 6.00 to 10.00
CCOc1cc(C(=O)O)cc(OCC)c1-n1cc(-c2cnn(CCN(C)C)c2)c2ncc(-c3c(C)noc3C)cc21 [P-0262, 4-(3-(1-(2-(dimethylamino)ethyl)-1H-pyrazol-4-yl)-6-(3,5-dimethylisoxazol-4-yl)-1H-pyrrolo[3,2-b]pyridin-1-yl)-3,5-diethoxybenzoic acid] | 6.00 to 10.00
CCOc1cc(C(=O)O)cc(OCC)c1-n1cc(-c2cn(C)nc2C)c2ncc(-c3c(C)noc3C)cc21 [P-0263, 4-(3-(1,3-dimethyl-1H-pyrazol-4-yl)-6-(3,5-dimethylisoxazol-4-yl)-1H-pyrrolo[3,2-b]pyridin-1-yl)-3,5-diethoxybenzoic acid] | 6.00 to 10.00
CCOc1cc(C(=O)O)cc(OCC)c1-n1cc(-c2cnn(CC3CC3)c2)c2ncc(-c3c(C)noc3C)cc21 [P-0264, 4-(3-(1-(cyclopropylmethyl)-1H-pyrazol-4-yl)-6-(3,5-dimethylisoxazol-4-yl)-1H-pyrrolo[3,2-b]pyridin-1-yl)-3,5-diethoxybenzoic acid] | 6.00 to 10.00
